In patent publication US20220040183A1, “USE OF INHIBITORS OF STRESS GRANULE FORMATION FOR TARGETING THE REGULATION OF IMMUNE RESPONSES” (INSERM (Institut National de la Santé et de la Recherche …, priority 2018, published 2022):

System: PD-1, LAG3 and TIM3 expression by CD3+ T cells
Test: Cell-based assay of immune checkpoint expression by T lymphocytes (flow cytometry)
Design: species or system human
Conditions: for PD-1, LAG3 and TIM3 expression by CD3+ T cells: PBMC activated with CD3/CD28 antibodies-coated beads, stimulated for 3 days, FIG. 4; for co-expression profile of PD-1, LAG3 and TIM3 immune checkpoint receptors on activated CD3+ T cells: healthy donors PBMC, FIG. 5, representative of n=6
Excerpt: PBMC were obtained from human healthy donors (Etablissement Français du Sang, Toulouse, France) after Ficoll-Hypaque (GE Healthcare) density centrifugation and cultured in RPMI 1640 medium (ThermoFisher Scientific) supplemented with 10% fetal bovine serum (ThermoFisher Scientific) and L-glutamine (SIGMA Aldrich).
Cell-Based Assay of Immune Checkpoint Expression by T Lymphocytes.
PBMC isolated from healthy donors were activated with CD3/CD28 antibodies-coated beads (ThermoFisher Scientific). When drugs were used (A-92 (1 μM) or GSK2606414 (GSK, 10 μM)), they were added simultaneously to the stimulation. After 3 days of in vitro culture, cells were processed for qRT-PCR, immunoblotting or flow cytometry analysis.

| Compound | PD-1, LAG3 and TIM3 expression by CD3+ T cells (A-92 1 μM) | co-expression profile of PD-1, LAG3 and TIM3 immune checkpoint receptors on activated CD3+ T cells (A-92 1 μM) | PD-1, LAG3 and TIM3 expression by CD3+ T cells (GSK2606414 10 μM) | co-expression profile of PD-1, LAG3 and TIM3 immune checkpoint receptors on activated CD3+ T cells (GSK2606414 10 μM) |
| --- | --- | --- | --- | --- |
| c1nn(C2CCOCC2)cc1Nc1ncc2nnn(-c3ccc4cn[nH]c4c3)c2n1 [A-92, 3-(1H-indazol-6-yl)-N-[1-(oxan-4-yl)pyrazol-4-yl]triazolo[4,5-d]pyrimidin-5-amine] | impair immune checkpoints expression | impair immune checkpoints expression simultaneously |  |  |
| Cn1cc(-c2ccc3c(c2)CCN3C(=O)Cc2cccc(C(F)(F)F)c2)c2c(N)ncnc21 [GSK2606414, 1-[5-(4-amino-7-methylpyrrolo[2,3-d]pyrimidin-5-yl)-2,3-dihydroindol-1-yl]-2-[3-(trifluoromethyl)phenyl]ethanone] |  |  | impair immune checkpoints expression | impair immune checkpoints expression simultaneously |
